Measured values as given in US8304258B2, “Methods of producing monoclonal antibodies specific for human hepcidin” (DRG International, Inc., priority 2002, dated 2012).
Blank lines part the entries; values can stand above or below the compound they belong to.

Legend:
[1] = molecular target: T1, Ferroportin-GFP (Fpn-GFP) (Mus musculus, UniProt Q9JHI9); test: Fpn-GFP internalization in HEK293-Fpn cells, epi-fluorescence microscopy; type: cell-based
T1 construct: expressed in transfected cells; host or cells: EcR293 cells (resulting HEK293-Fpn cells), induced with ponasterone for 24 h
T1 sequence (Q9JHI9 1-570): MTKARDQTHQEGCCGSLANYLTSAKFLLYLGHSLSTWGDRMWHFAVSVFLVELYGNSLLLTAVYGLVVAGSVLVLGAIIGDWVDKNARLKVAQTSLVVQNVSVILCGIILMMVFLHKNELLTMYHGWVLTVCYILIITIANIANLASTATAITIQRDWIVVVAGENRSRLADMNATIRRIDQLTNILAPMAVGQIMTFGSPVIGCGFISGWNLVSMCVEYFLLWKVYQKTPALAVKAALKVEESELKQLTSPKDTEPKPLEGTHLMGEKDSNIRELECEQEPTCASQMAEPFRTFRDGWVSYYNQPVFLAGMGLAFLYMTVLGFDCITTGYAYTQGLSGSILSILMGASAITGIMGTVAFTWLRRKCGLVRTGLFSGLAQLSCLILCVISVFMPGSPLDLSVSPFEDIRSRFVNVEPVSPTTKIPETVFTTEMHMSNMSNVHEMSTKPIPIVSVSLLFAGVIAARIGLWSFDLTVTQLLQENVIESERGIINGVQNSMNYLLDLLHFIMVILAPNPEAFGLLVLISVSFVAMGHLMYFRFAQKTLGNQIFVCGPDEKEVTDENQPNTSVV
From the text: In one embodiment, the antibodies of the instant invention (e.g., the antibodies capable of binding SEQ ID NO:2, SEQ ID NO:3, SEQ ID NO:4, SEQ ID NO:5) may be used to inactivate hepcidin. In one embodiment, EcR293 cells were stably transfected with a plasmid containing an ecdysone-regulated Ferroportin-GFP (Fpn-GFP) construct (Nemeth et al. Science 306:2090-2093, (2004)). In resulting HEK293-Fpn cells bioactive hepcidin binds to ferroportin and specifically induces the internalization of Fpn-GFP. Briefly, Fpn-GFP was induced by ponasterone treatment for 24 h. Cells were then incubated with 0.1 to 0.5 μM purified human hepcidin (from urine) for 6 h and imaged by epi-fluorescence microscopy. […] When hepcidin was absent from the medium, there was no internalization of Fpn-GFP.
cR293 cells were stably transfected with a plasmid containing an ecdysone-regulated Ferroportin-GFP (Fpn-GFP) construct. In resulting HEK293-Fpn cells bioactive hepcidin binds to ferroportin and specifically induces the internalization of Fpn-GFP. Briefly, Fpn-GFP was induced by ponasterone treatment for 24 h. Cells were then incubated with 0.1 to 0.5 μM purified human hepcidin (from urine) for 6 h and imaged by epi-fluorescence microscopy.

[2] = system: hepcidin expression in RINm5F cells; test: Hepcidin expression in RINm5F cells by quantitative RT-PCR after stimulation; type: cell-based, rat
Protocol: (§1) RINM5F cells were grown in RPMI1640 media (PAA, Austria) containing L-glutamine, supplemented with 10% (vol/vol) heat inactivated fetal calf serum, penicillin (100 units/ml) and streptomycin (100 μg/mL). Cells were cultivated at 37° C. in 5% CO2. Cells were incubated with increasing concentrations of FENTA from 1 μM up to 65 μM for 72 hours and with 100 mM glucose (Merck, Darstadt, Germany) for up to 8 hours. After stimulation experiments, total rna or proteins were extracted from RINM5F cells and analyzed by quantitative PCR and immunoblot assays.
The regulation of hepcidin expression in RINm5F cells was analyzed upon exposure to iron, since iron regulates hepcidin expression in the liver. The regulatory effect of iron on hepcidin gene expression was measured in these cells under various FENTA concentrations using quantitative RT-PCR as described, for example, in Gehrke et al., Blood 102: 371-376 (2003). A 2-step reverse transcriptase-polymerase chain reaction (RT-PCR) was performed using the Lightcycler system and relative quantification software version 1.0 (ROCHE Molecular Biochemicals; Mannheim, Germany). […] In a second step, transcripts of hepcidin were amplified in duplicates with specific sense and antisense primers. all transcripts were detected using SYBR GREEN I according to manufacturer's instructions and were normalized to β-actin as internal control.

RINm5F cells = test: Neutral red cytotoxicity assay in RINm5F cells; type: cell-based, rat; settings: FeNTA concentrations used, 3 days after iron stimulation
Protocol: (A): Hepcidin expression in RINm5F cells after iron (FeNTA) stimulation using quantitative RT-PCR (n=5) (1 μM FeNTA: P<0.01; 3 μM: P<0.001; 10 μM: P<0.002; 65 μM: P<0.05). (B): Cytotoxicity of FeNTA in RINm5F cells measured by neutral red assay 3 days after iron stimulation. […] (C): Immunoblot analysis of iron stimulated RINm5F cells showing hepcidin immunoreactivity at the range of 10 kDa. […] The second immunoreactive band at 20 kDa may reflect a dimeric type of hepcidin.
(§2) In these experiments, protein extracts were incubated for 7 min at 94° C. in sample buffer with 4% (wt/vol) SDS (Merck, Darmstadt, Germany), 50 mM TRIS-HCl (PH 8.45), 1 mM EDTA, 3.24 mM dithiothreitol (ROTH, Karlsruhe, Germany), 12.5% (wt/vol) glycerol (Merck, Darmstadt, Germany), and 0.002% Bromophenol blue (Merck, Darmstadt, Germany). To detect hepcidin, a 16.5% Tricine-SDS-polyacrylamide gel was used.

[3] = system: hepcidin protein in RINm5F cells; test: Immunoblot analysis of hepcidin in stimulated RINm5F cells; type: cell-based, rat
Protocol: as §1, §2

time to Fpn internalization ([1]; 0.1 μM hepcidin): ≤ 1 h | concentration of hepcidin that induced Fpn internalization ([1]; HEK293-Fpn cells, within 1 h): ≤ 0.1 µM
Compound: hepcidin: purified human hepcidin (from urine), bioactive peptide hormone binding ferroportin
distribution of Fpn-GFP after addition of hepcidin ([1]; 0.1 to 0.5 μM purified human hepcidin (from urine), 6 h): changed the distribution of Fpn-GFP from the cell surface to punctuate intracellular vesicles

Compound: Chemically synthesized hepcidin: hepcidin synthesized chemically
efficiency in inducing Fpn-GFP internalization compared with hepcidin purified from urine ([1]; same experiments as with urine hepcidin): as efficient in inducing Fpn-GFP internalization as hepcidin purified from urine

Compound: O=C([O-])CN(CC(=O)[O-])CC(=O)[O-].[Fe+3] [FeNTA, Iron Nitrilotriacetate]
hepcidin-mRNA regulation ([2]; FeNTA 1 μM up to 10 μM, 72 hours): significant up-regulation of hepcidin-mRNA up to three-fold | hepcidin expression ([2]; FeNTA 65 μM or higher): down-regulated | cytotoxicity in neutral red assay (RINm5F cells): no cytotoxicity exists under the iron concentrations used | cytotoxicity in neutral red assay (RINm5F cells; listed as FENTA): not cytotoxic | hepcidin immunoreactivity at 10 kDa compared to control ([3]; 3 μM FeNTA): up-regulation of hepcidin | hepcidin immunoreactivity at 10 kDa compared to control ([3]; 65 μM FeNTA): down-regulation
